# In article PMC4727773, “Design, Synthesis, and Biological Evaluation of New 2-Phenyl-4H-chromen-4-one Derivatives as Selective Cyclooxygenase-2 Inhibitors” (Scientia Pharmaceutica, 2014):
# Columns and labels:
# ovine COX-1 = target: T1, ovine COX-1 (Ovis aries, UniProt P05979); assay: In vitro ovine COX-1 enzyme inhibition (chemiluminescent enzyme assay kit, Cayman); format: biochemical; conditions: ovine COX-1/COX-2 assay kit; means of two determinations, deviation < 10% of the mean
# T1 construct: purchased Cayman Chemical, Ann Arbor, MI, USA
# T1 sequence (P05979 25-600): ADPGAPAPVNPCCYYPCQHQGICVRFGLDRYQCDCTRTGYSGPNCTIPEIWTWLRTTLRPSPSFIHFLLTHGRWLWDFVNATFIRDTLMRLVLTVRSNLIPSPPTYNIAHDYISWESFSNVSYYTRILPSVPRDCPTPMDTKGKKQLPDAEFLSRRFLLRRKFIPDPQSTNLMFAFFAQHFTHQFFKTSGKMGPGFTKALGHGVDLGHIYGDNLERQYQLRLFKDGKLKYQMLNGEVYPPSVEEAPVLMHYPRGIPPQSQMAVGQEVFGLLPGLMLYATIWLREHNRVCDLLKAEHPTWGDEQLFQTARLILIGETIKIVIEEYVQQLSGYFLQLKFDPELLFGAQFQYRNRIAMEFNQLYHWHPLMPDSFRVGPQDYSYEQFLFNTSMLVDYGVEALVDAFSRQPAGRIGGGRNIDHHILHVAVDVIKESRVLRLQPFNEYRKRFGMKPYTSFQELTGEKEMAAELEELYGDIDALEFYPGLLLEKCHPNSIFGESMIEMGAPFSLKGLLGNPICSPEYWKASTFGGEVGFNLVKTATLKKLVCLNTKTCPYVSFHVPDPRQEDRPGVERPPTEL
# Protocol: (§1) The ability of the test compounds listed in Table 1 to inhibit ovine COX-1 and COX-2 (IC50 value, μM) was determined using the chemiluminescent enzyme assay kit (Cayman Chemical, Ann Arbor, MI, USA) according to our previously reported method.
# ovine COX-2 = target: T2, ovine COX-2 (Ovis aries, UniProt P79208); assay: In vitro ovine COX-2 enzyme inhibition (chemiluminescent enzyme assay kit, Cayman); format: biochemical; conditions: for Selectivity index (SI): In vitro COX-2 selectivity index (COX-1 IC50/COX-2 IC50); for IC50: ovine COX-1/COX-2 assay kit, means of two determinations, deviation < 10% of the mean
# T2 construct: purchased Cayman Chemical, Ann Arbor, MI, USA
# T2 sequence (P79208 17-603): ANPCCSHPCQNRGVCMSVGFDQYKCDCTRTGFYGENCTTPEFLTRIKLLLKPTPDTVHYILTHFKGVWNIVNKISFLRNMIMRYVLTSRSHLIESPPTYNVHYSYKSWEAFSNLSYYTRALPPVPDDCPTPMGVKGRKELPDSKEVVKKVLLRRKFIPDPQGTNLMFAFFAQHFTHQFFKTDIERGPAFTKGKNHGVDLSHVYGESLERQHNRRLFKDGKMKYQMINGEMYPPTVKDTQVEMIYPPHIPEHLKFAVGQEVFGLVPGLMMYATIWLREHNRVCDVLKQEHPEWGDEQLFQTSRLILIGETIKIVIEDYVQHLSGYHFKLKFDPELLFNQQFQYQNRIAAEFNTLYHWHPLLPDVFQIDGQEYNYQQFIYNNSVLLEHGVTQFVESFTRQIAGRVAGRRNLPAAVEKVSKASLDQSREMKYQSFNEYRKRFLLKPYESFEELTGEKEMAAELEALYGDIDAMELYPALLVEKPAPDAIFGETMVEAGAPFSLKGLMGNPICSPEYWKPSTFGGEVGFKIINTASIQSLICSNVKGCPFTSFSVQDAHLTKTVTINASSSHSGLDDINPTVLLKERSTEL
# Protocol: as §1
compound,measurement,setting,value
"CS(=O)(=O)c1ccc(-c2cc(=O)c3ccccc3o2)cc1 [Compound 3, 2-[4-(Methylsulfonyl)phenyl]-4H-chromen-4-one]",melting point,,187 °C
same,IC50,ovine COX-1,10.8 µM
same,Selectivity index (SI),ovine COX-2,98.2
same,IC50,ovine COX-2,0.11 µM
"CS(=O)(=O)c1ccc(-c2oc3ccccc3c(=O)c2O)cc1 [Compound 4, 3-Hydroxy-2-[4-(methylsulfonyl)phenyl]-4H-chromen-4-one]",melting point,,198 to 199 °C
same,IC50,ovine COX-1,9.79 µM
same,Selectivity index (SI),ovine COX-2,75.3
same,IC50,ovine COX-2,0.13 µM
"COc1c(-c2ccc(S(C)(=O)=O)cc2)oc2ccccc2c1=O [Compound 5a, 3-Methoxy-2-[4-(methylsulfonyl)phenyl]-4H-chromen-4-one]",melting point,,92 to 93 °C
same,IC50,ovine COX-1,12.7 µM
same,Selectivity index (SI),ovine COX-2,126.5
same,IC50,ovine COX-2,0.1 µM
"CCOc1c(-c2ccc(S(C)(=O)=O)cc2)oc2ccccc2c1=O [Compound 5b, 3-Ethoxy-2-[4-(methylsulfonyl)phenyl]-4H-chromen-4-one]",melting point,,137 to 138 °C
same,IC50,ovine COX-1,13.4 µM
same,Selectivity index (SI),ovine COX-2,149.1
same,IC50,ovine COX-2,0.09 µM
"C=CCOc1c(-c2ccc(S(C)(=O)=O)cc2)oc2ccccc2c1=O [Compound 5c, 3-(Allyloxy)-2-[4-(methylsulfonyl)phenyl]-4H-chromen-4-one]",melting point,,116 to 118 °C
same,IC50,ovine COX-1,13.8 µM
same,Selectivity index (SI),ovine COX-2,173.1
same,IC50,ovine COX-2,0.08 µM
"CS(=O)(=O)c1ccc(-c2oc3ccccc3c(=O)c2OCc2ccccc2)cc1 [Compound 5d, 3-(Benzyloxy)-2-[4-(methylsulfonyl)phenyl]-4H-chromen-4-one]",melting point,,140 to 142 °C
same,IC50,ovine COX-1,20.1 µM
same,Selectivity index (SI),ovine COX-2,287.1
same,IC50,ovine COX-2,0.07 µM
"CC(=O)Oc1c(-c2ccc(S(C)(=O)=O)cc2)oc2ccccc2c1=O [Compound 6, 2-[4-(Methylsulfonyl)phenyl]-4-oxo-4H-chromen-3-yl acetate]",melting point,,175 °C
same,IC50,ovine COX-1,15.6 µM
same,Selectivity index (SI),ovine COX-2,195.6
same,IC50,ovine COX-2,0.08 µM
